Each structure is given as a SMILES string.

The subject of one assay is INS1. Kind of assay: Insulin secretion test (SEC INS1) according to Endocrinology, 1992 vol. 130 (1) pp. 167-178. The assay is classed as cell-based. Particulars: Rattus norvegicus, compounds tested at 10^-5 M, read-out: SEC INS1 (insulin-secreting activity). The procedure:
Insulin Secretion Test According to the Method Described in Endocrinology, 1992 vol. 130 (1) pp. 167-178
The compounds according to the invention were tested at 10^−5 M.
The insulin-secreting activities are collated in Table B.

Assay [1] relates to isolated islets of Langerhans. Nature of the assay: Insulin secretion in isolated rat islets of Langerhans in static incubation, as a function of the glucose concentration. Particulars: 90 minutes incubation, RIA, relative to glucose alone; for Insulin secretion stimulation factor, Product + G 2.8 mM: glucose 2.8 mM; for Insulin secretion stimulation factor, Product + G 8 mM: glucose 8 mM. The assay is classed as cell-based. How it is done: Study of the Activity on Isolated Rat Islets
Effect of the chemical compounds on insulin secretion as a function of the glucose concentration, in vitro, in isolated islets of Langerhans in static incubation (Table C):
The islets of Langerhans obtained by digestion of exocrine pancreatic tissue with collagenase, and then purified on Ficoll gradient, are incubated for 90 minutes in the presence of two concentrations of glucose, (2.8 mM or 8 mM), in the presence or absence of the chemical compound. The insulin secretion is assayed by RIA in the incubation medium.
The potential of the various chemical compounds to stimulate insulin secretion is estimated by calculating the stimulation factor*.
A compound stimulates the secretion of insulin if this factor is greater than or equal to 130% for a given dose of glucose.
where: • G=secretion of insulin (pmol/min. islet) in the presence of glucose alone • G+product=secretion of insulin (pmol/min. islet) in the presence of the same concentration of glucose and of the test chemical compound.

As to `CCOC(=O)c1sc2ccccc2c1OCc1cccc(C#N)c1` [Product 29], the activity at 10 µM with INS1 was 249%.

Regarding `CCOC(=O)c1sc2ccccc2c1OCC(=O)c1ccc(F)cc1` [Product 7], the activity at 10 µM with INS1 stood at 257%.

With `CCOC(=O)c1sc2ccccc2c1OCC(=O)c1cccc(OC)c1` [Product 8], the activity at 10 µM in the assay on INS1 came out at 252%.

Consider `CCOC(=O)c1sc2ccccc2c1OCC(=O)c1ccc(OC)cc1OC` [Product 11], for which the activity at 10 µM in the assay on INS1 was determined as 258%.

On to `CCOC(=O)c1sc2ccccc2c1OCC(=O)c1ccc2ccccc2c1` [Product 13], for which the activity at 10 µM in the assay with INS1 came out at 240%.

On to `CCOC(=O)c1sc2ccccc2c1OCC(=O)C(C)(C)C` [Product 12], for which, in assay [1] (dose 10^-5 M), the “Insulin secretion stimulation factor, Product + G 2.8 mM” value stood at 93% and the “Insulin secretion stimulation factor, Product + G 8 mM” value came out at 186%. Besides, in assay [1] (dose 10^-6 M), the “Insulin secretion stimulation factor, Product + G 2.8 mM” value is on record as 90% and the “Insulin secretion stimulation factor, Product + G 8 mM” value came to 189%. Besides, in the assay on INS1, the activity at 10 µM stood at 230%.

`CCOC(=O)c1sc2ccccc2c1OCC(=O)c1ccccc1OC` [Product 3]: in the assay with INS1, the activity at 10 µM worked out at 320%.

Consider `CCOC(=O)c1sc2ccccc2c1OC(C)C(=O)c1ccccc1` (stereo not drawn) [Product 10], for which the activity at 10 µM in the assay with INS1 came out at 225%.

The values above are taken from patent US7375130B2, “Antidiabetic compounds comprising benzofuran and benzothiophene derivatives” (Merck Patent Gesellschaft mit beschrankter Haftung, priority 2003, dated 2008).
